Marks after values point to notes of the source that are not given here.
Legend:
[1] = tested on: septic shock induced by LPS + D-Galactosamine, in mice; test: LPS+D-Galactosamine-induced septic shock model; assay type: in vivo, SPF female BALB/c inbred mice
Experimental: The experiments were carried out in vivo on mice. The septic shock was induced by an i.p. administration of a mixture of LPS (0.1 μg/mouse) and D-Galactosamine (18 mg/mouse).
The treatment schedule for r-hTBP-1 based on repeated administrations (the total dose was divided into 4 administrations given at time 0 and […] and 24 hours after), was adopted. CHO r-hTBP-1 was tested, alone or in combination with DHEA, at dose levels of 62.5 and 125 μg/mouse (total dose).
DHEA was tested both in a single administration injected i.p. one hour before and contemporaneously to the septic shock-inducing agent at doses encompassed between 100 and 2.000 μg/mouse and in repeated treatment with the total dose (250 μg/mouse) divided into 4 injections given within 24 hours.
The above treatment schedules of DHEA (doses from 250 to 1,500 μl g/mouse) were followed also in combination with r-hTBP-1 which was tested at the total dose varying from 62.5 to 125 μg/mouse (divided into 4 administrations).
SPF female BALB/c inbred mice, 6–8 weeks (about 18–20 g b.w.), from Charles River were used throughout the whole study after an acclimatisation period of at least 7 days.
Unless otherwise specified, in all the experiments the mice were randomly divided into groups of 10 animals each.
Both substances were dissolved in saline. The mixture of LPS (0.1 μg/mouse) and D-Galactosamine (18 mg/mouse) was prepared by mixing equal volumes of these substances. The mixture was subsequently injected to animals by the i.p. route. This dose was selected under precious experiments as that inducing around 80% mortality calculated as the number of dead vs. total number of mice for each croup. The lethality was monitored after 24, 48, 72 and 96 hours and at day 7 post-treatment.
The drug was diluted in saline and injected by repeated administrations, i.e. i.v. immediately before the inoculum of LPS plus D-Galactosamine and s.c. 3, 6 and 24 hours later.
The effects of DHEA, alone or in combination with r-hTBP-1, were assayed after single i.p. administrations at different times in respect to LPS+D-Galactosamine injection; in particular, it was administered 1 hour before and contemporaneously to the septic shock-inducing agent.
A repeated treatment schedule was also investigated in which DHEA was administered at time 0 (septic shock induction) and 3, 6 and 24 hours later. DHEA was initially vehicled in a mixture of 2.5% alcohol and 10% rabbit serum in saline. To improve the solubility and standardise the preparation, the steroid was successively dispersed in a mixture of 2.5% alcohol and 10% phospholipid emulsion in saline.
The primary end point was the survival rate at 48 hours after induction of septic shock. The comparison of the effects of each treatment group vs. controls and among treatment groups was effected by Fisher's exact test, one-tailed. The same comparison was also performed at the other time points. The results in each treatment group were expressed as percent survival.
In all the experiments, percent survival values were calculated using the survival Tables for the follow up studies (Armitage P. Cap. XIV. Tavole di sopravvivenza in Statistica Medica, Feltrinelli, Milano). The χ^2-test was applied to each observation time by comparing the DHEA+r-hTBP-1 groups to the other groups.

[2] = tested on: systemic lupus erythematosus; conditions: mouse model; cited from earlier work
West Nile virus = conditions: cited from earlier work
Semliki Forest virus = conditions: cited from earlier work
[3] = tested on: septic shock induced by lipopolysaccharides (LPS) alone; conditions: mice; cited from earlier work
[4] = tested on: septic shock induced by Tumor Necrosis Factor alpha (TNF-α) in combination with D-Galactosamine; conditions: mice; cited from earlier work

C[C@]12CC[C@H](O)CC1=CC[C@@H]1[C@@H]2CC[C@]2(C)C(=O)CC[C@@H]12 [DHEA, Dehydroepiandrosterone]
% cumulative survival ([1]; DHEA 1500 μg/mouse i.p. 1 hour before LPS + D-Gal, saline 10% rabbit serum, 96 hrs, 2nd exp): 50%
% cumulative survival ([1]; DHEA 2000 μg/mouse i.p. 1 hour before LPS + D-Gal, saline 10% rabbit serum, 24 hrs, 1st exp): 100^a %
% cumulative survival ([1]; DHEA 2000 μg/mouse i.p. 1 hour before LPS + D-Gal, saline 10% rabbit serum, 24 hrs, 2nd exp): 100^a %
% cumulative survival ([1]; DHEA 2000 μg/mouse i.p. 1 hour before LPS + D-Gal, saline 10% rabbit serum, 48 hrs, 1st exp): 100^a %
% cumulative survival ([1]; DHEA 2000 μg/mouse i.p. 1 hour before LPS + D-Gal, saline 10% rabbit serum, 48 hrs, 2nd exp): 100^a %
% cumulative survival ([1]; DHEA 2000 μg/mouse i.p. 1 hour before LPS + D-Gal, saline 10% rabbit serum, 72 hrs, 1st exp): 100^a %
% cumulative survival ([1]; DHEA 2000 μg/mouse i.p. 1 hour before LPS + D-Gal, saline 10% rabbit serum, 72 hrs, 2nd exp): 100^a %
% cumulative survival ([1]; DHEA 2000 μg/mouse i.p. 1 hour before LPS + D-Gal, saline 10% rabbit serum, 96 hrs, 1st exp): 100^a %
% cumulative survival ([1]; DHEA 2000 μg/mouse i.p. 1 hour before LPS + D-Gal, saline 10% rabbit serum, 96 hrs, 2nd exp): 100^a %
survival ([1]; DHEA 1.000 and 1.500 μg/mouse alone): 0–40%
protective effects ([1]; DHEA at doses higher than 1.000 μg/mouse, 1 hour before LPS+D-Galactosamine): statistically significant protective effects
protective effects ([1]; DHEA up to 1.000 μg/mouse, 1 hour before LPS+D-Galactosamine): No protective effects
% cumulative survival ([1]; Table 2, DHEA 1000 μg/mouse i.p. 1 hour before LPS + D-Gal, saline 10% rabbit serum, 24 hrs): 0%
% cumulative survival ([1]; Table 2, DHEA 1000 μg/mouse i.p. 1 hour before LPS + D-Gal, saline 10% rabbit serum, 48 hrs): 0%
% cumulative survival ([1]; Table 2, DHEA 1000 μg/mouse i.p. 1 hour before LPS + D-Gal, saline 10% rabbit serum, 72 hrs): 0%
% cumulative survival ([1]; Table 2, DHEA 1000 μg/mouse i.p. 1 hour before LPS + D-Gal, saline 10% rabbit serum, 96 hrs): 0%
% cumulative survival ([1]; Table 2, DHEA 1500 μg/mouse i.p. 1 hour before LPS + D-Gal, saline 10% rabbit serum, 24 hrs): 40%
% cumulative survival ([1]; Table 2, DHEA 1500 μg/mouse i.p. 1 hour before LPS + D-Gal, saline 10% rabbit serum, 48 hrs): 40%
% cumulative survival ([1]; Table 2, DHEA 1500 μg/mouse i.p. 1 hour before LPS + D-Gal, saline 10% rabbit serum, 72 hrs): 20%
% cumulative survival ([1]; Table 2, DHEA 1500 μg/mouse i.p. 1 hour before LPS + D-Gal, saline 10% rabbit serum, 96 hrs): 20%
% cumulative survival ([1]; Table 4, DHEA 250 μg single injection at time 0 i.p., NaCl 10% PLE, 24 hr): 40%
% cumulative survival ([1]; Table 4, DHEA 250 μg single injection at time 0 i.p., NaCl 10% PLE, 48 hr): 30%
% cumulative survival ([1]; Table 4, DHEA 250 μg single injection at time 0 i.p., NaCl 10% PLE, 72 hr): 30%
% cumulative survival ([1]; Table 4, DHEA 250 μg single injection at time 0 i.p., NaCl 10% PLE, 96 hr): 30%
% cumulative survival ([1]; Table 4, DHEA 250 μg single injection at time 0 i.p., NaCl 10% RS, 24 hr): 30%
% cumulative survival ([1]; Table 4, DHEA 250 μg single injection at time 0 i.p., NaCl 10% RS, 48 hr): 30%
% cumulative survival ([1]; Table 4, DHEA 250 μg single injection at time 0 i.p., NaCl 10% RS, 72 hr): 30%
% cumulative survival ([1]; Table 4, DHEA 250 μg single injection at time 0 i.p., NaCl 10% RS, 96 hr): 30%
% cumulative survival ([1]; Table 5 group D, DHEA 250 μg single injection at time 0 i.p., NaCl 10% PLE, 24 hrs, 1st exp.): 40%
% cumulative survival ([1]; Table 5 group D, DHEA 250 μg single injection at time 0 i.p., NaCl 10% PLE, 48 hrs, 1st exp.): 30%
% cumulative survival ([1]; Table 5 group D, DHEA 250 μg single injection at time 0 i.p., NaCl 10% PLE, 72 hrs, 1st exp.): 30%
% cumulative survival ([1]; Table 5 group D, DHEA 250 μg single injection at time 0 i.p., NaCl 10% PLE, 96 hrs, 1st exp.): 30%
% cumulative survival ([1]; Table 5 group E, DHEA 62.5 μg x4 at time 0, 3, 6 and 24 hours i.p., NaCl 10% PLE, 24 hrs, 1st exp.): 40%
% cumulative survival ([1]; Table 5 group E, DHEA 62.5 μg x4 at time 0, 3, 6 and 24 hours i.p., NaCl 10% PLE, 24 hrs, 2nd exp.): 40%
% cumulative survival ([1]; Table 5 group E, DHEA 62.5 μg x4 at time 0, 3, 6 and 24 hours i.p., NaCl 10% PLE, 48 hrs, 1st exp.): 40%
% cumulative survival ([1]; Table 5 group E, DHEA 62.5 μg x4 at time 0, 3, 6 and 24 hours i.p., NaCl 10% PLE, 48 hrs, 2nd exp.): 40%
% cumulative survival ([1]; Table 5 group E, DHEA 62.5 μg x4 at time 0, 3, 6 and 24 hours i.p., NaCl 10% PLE, 72 hrs, 1st exp.): 40%
% cumulative survival ([1]; Table 5 group E, DHEA 62.5 μg x4 at time 0, 3, 6 and 24 hours i.p., NaCl 10% PLE, 72 hrs, 2nd exp.): 40%
% cumulative survival ([1]; Table 5 group E, DHEA 62.5 μg x4 at time 0, 3, 6 and 24 hours i.p., NaCl 10% PLE, 96 hrs, 1st exp.): 40%
% cumulative survival ([1]; Table 5 group E, DHEA 62.5 μg x4 at time 0, 3, 6 and 24 hours i.p., NaCl 10% PLE, 96 hrs, 2nd exp.): 40%
protection from death (survival) ([1]; at least 1.500 μg/mouse DHEA, 1 hour before LPS+D-Galactosamine): 70%
development of systemic lupus erythematosus [2]: prevent the development
systemic resistance against lethal viral infections (West Nile virus): regulates the systemic resistance
systemic resistance against lethal viral infections (Semliki Forest virus): regulates the systemic resistance
protection from septic shock [3]: protecting mice from septic shock
protection from septic shock [4]: protecting mice from septic shock
